Values quoted from earlier work as cited in patent US6703036B1, “Stomach-action molluscicides” (priority 1997, dated 2004).

Columns and labels:
[1] = system: golden apple snail, Pomacea canaliculata; details: used on its own at 100 ppm, aqueous solution on the water surface
rat = details: oral administration

Row | Compound | molluscicidal activity [1] | LD50 (rat) [mg/kg]
1 | CCCCCCCCCCCCOS(=O)(=O)[O-].[Na+] [Sodium dodecyl sulphate] | effective molluscicide | 
2 | Sorbitan monolaurate |  | 33600
3 | Sorbitan monostearate |  | 31000
